Here are results for 3 molecules from ChEMBL document CHEMBL1151990, “3-Alkylpyridinium alkaloids from the Pacific sponge Haliclona sp” (J Nat Prod, 2009).

In brackets after ≈: the same amount, converted by molar mass.

One assay relates to HEK293. The experiment in a line: Cytotoxicity against HEK293 cells by rapid colorimetric assay. It is filed as cell-based. Conditions: Homo sapiens.
The next assay relates to J774.A1. Briefly: Cytotoxicity against mouse J774A1 cells by rapid colorimetric assay. It counts as cell-based.
The subject of another assay is WEHI-164. The experiment in a line: Cytotoxicity against mouse WEHI164 cells by rapid colorimetric assay. It is filed as functional, cell-based.

Broadly, the IC50 is the concentration needed to halve the response being measured. As for `C1=C\Cc2ccc[n+](c2)CCCCCCCC/C=C\Cc2ccc[n+](c2)CCCCCCCC/C=C\Cc2ccc[n+](c2)CCCCCCCC/1`, the 50% inhibitory concentration (IC50) with HEK293, in the assay with J774.A1 and in the assay with WEHI-164 was above 20 µg/mL throughout.

For the molecule `C1=C\Cc2ccc[n+](c2)CCCCCCCC/C=C\Cc2ccc[n+](c2)CCCCCCCC/1`, the IC50 in the assay on HEK293, with J774.A1 and in the assay with WEHI-164 was above 20 µg/mL in each case.

Regarding `Sc1ncnc2nc[nH]c12` [MERCAPTOPURINE ANHYDROUS], the IC50 with HEK293 stood at 0.00071 µg/mL (≈ 0.00467 µM); in the assay on J774.A1 it was 0.0051 µg/mL (≈ 0.0335 µM); in the assay with WEHI-164 it was 0.0025 µg/mL (≈ 0.0164 µM).
